# Assay results: article PMC11397024, “Strategic Fluorination to Achieve a Potent, Selective, Metabolically Stable, and Orally Bioavailable Inhibitor of CSNK2” (Molecules, 2024)
# pIC50: −log10 of the molar value.
# How the values were obtained:
# CSNK2A1 = biological target: T1, CSNK2A1 (Homo sapiens, UniProt P68400); assay: NanoBRET assay CSNK2A1; type: cell-based; conditions: HEK293 cells, singlicate, read-out: CSNK2A1 pIC50 (converted)
# T1 construct: expressed in transfected cells; host or cells: HEK293
# Description: (§1) Assays were run using a modified version of the previously published protocols. […] A transfection complex of DNA (10 μg/mL) was generated consisting of 9 μg/mL carrier DNA (Promega, Madison, WI, USA) and 1 μg/mL CSNK2A-NLuc fusion DNA in Opti-MEM without serum (Gibco). FuGENE HD (Promega) was added at 30 μL/mL to form a lipid–DNA complex. The solution was then mixed and incubated at room temperature for 20 min. The transfection complex was mixed with a 20× volume of HEK293 cells in DMEM/FBS to arrive at a final concentration of 200,000 cells/mL, and 100 μL/well was added to a 96-well plate that was incubated overnight at 37 °C and 5% CO2. The following day, the medium was removed via aspiration and replaced with 85 μL of Opti-MEM without phenol red. A total of 5 μL per well of 20× NanoBRET Tracer K10 (Promega) at 10 μM for CSNK2A1 or 5 μM for CSNK2A2 in Tracer Dilution Buffer (Promega N291B) was added to all wells, except the “no tracer” control wells. Test compounds (10 mM in DMSO) were diluted 100× in Opti-MEM media to prepare stock solutions and evaluated at 11 concentrations. A total of 10 μL per well of the 10-fold test compound stock solutions (final assay concentration of 0.1% DMSO) were added. […] The plates were read within 30 min on a GloMax Discover luminometer (Promega) equipped with a 450 nm BP filter (donor) and 600 nm LP filter (acceptor) using 0.3 s of integration time. […]
# CSNK2A2 = biological target: T2, CSNK2A2 (Homo sapiens, UniProt P19784); assay: NanoBRET assay CSNK2A2; type: cell-based; conditions: HEK293 cells, singlicate, read-out: CSNK2A2 pIC50 (converted)
# T2 construct: expressed in transfected cells; host or cells: HEK293
# Description: as §1
# DAPK2 = biological target: T3, DAPK2 (Homo sapiens, UniProt Q9UIK4); assay: NanoBRET dose-response DAPK2; type: cell-based; conditions: highest concentration tested 30 μM
# T3 construct: expressed in transfected cells; host or cells: HEK293
# DYRK1A = biological target: T4, DYRK1A (Homo sapiens, UniProt Q13627); assay: NanoBRET dose-response DYRK1A; type: cell-based; conditions: IC50 not determined, poor assay window
# T4 construct: purchased Promega (NanoBRET Target Engagement K192 Kinase Selectivity System)
# [1] = Hepatocyte stability, human; type: in vitro ADME; conditions: cryopreserved hepatocytes, over 2 h
# Description: Human cryopreserved hepatocytes were supplied by BioIVT (lot QZW, 10 pooled donors, Westbury, NY, USA). Mouse cryopreserved hepatocytes were supplied by BioIVT (lot ZPG, pooled male CD-1). Vials of cryopreserved hepatocytes were removed from storage and thawed in a 37 °C water bath with gentle shaking, and then the contents were poured into a 50 mL thawing medium conical tube. Vials were centrifuged at 100× g for 10 min at room temperature. The thawing medium was aspirated, and hepatocytes were resuspended with a serum-free incubation medium to yield ~1.5 × 10^6 cells/mL. Cell viability and density were counted using AO/PI fluorescence staining, and then cells were diluted with a serum-free incubation medium to a working cell density of 0.5 × 10^6 viable cells/mL. Aliquots of 198 μL of hepatocytes were dispensed into each well of a 96-well noncoated plate. The plate was placed in an incubator for approximately 10 min. […] Peak areas were determined from extracted ion chromatograms, and the slope value, k, was determined by linear regression of the natural logarithm of the remaining percentage of the parent drug vs. incubation time curve. The intrinsic clearance (CLint in μL/min/10^6 cells) was calculated using the relationship CLint = kV/N, where V is the incubation volume (0.2 mL) and N is the number of hepatocytes per well (0.1 × 10^6 cells). […]
# [2] = Unbound fraction in mouse plasma; type: in vitro ADME; conditions: read-out: unbound fraction in mouse plasma (fu)
# T2 sequence (P19784 whole entry): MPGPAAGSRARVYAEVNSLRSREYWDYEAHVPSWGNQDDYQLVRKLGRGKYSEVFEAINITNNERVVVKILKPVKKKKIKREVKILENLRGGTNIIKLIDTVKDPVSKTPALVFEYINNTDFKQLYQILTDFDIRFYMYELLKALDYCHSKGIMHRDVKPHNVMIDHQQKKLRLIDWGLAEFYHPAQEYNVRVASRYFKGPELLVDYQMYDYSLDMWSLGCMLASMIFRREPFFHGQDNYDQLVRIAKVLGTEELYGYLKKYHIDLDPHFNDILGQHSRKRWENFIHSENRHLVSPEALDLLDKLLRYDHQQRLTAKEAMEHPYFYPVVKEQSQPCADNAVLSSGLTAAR
# T1 sequence (P68400 whole entry): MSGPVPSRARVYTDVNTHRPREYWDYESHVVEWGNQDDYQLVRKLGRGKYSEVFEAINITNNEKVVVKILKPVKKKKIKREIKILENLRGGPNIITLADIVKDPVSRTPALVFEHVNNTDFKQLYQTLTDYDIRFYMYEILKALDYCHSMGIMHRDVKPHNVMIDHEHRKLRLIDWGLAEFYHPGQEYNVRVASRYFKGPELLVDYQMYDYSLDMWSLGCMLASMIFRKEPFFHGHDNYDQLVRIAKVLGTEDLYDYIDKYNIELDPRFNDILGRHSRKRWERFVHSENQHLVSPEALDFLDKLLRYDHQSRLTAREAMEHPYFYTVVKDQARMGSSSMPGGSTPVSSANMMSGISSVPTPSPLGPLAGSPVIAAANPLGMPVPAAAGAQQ
# T3 sequence (Q9UIK4 whole entry): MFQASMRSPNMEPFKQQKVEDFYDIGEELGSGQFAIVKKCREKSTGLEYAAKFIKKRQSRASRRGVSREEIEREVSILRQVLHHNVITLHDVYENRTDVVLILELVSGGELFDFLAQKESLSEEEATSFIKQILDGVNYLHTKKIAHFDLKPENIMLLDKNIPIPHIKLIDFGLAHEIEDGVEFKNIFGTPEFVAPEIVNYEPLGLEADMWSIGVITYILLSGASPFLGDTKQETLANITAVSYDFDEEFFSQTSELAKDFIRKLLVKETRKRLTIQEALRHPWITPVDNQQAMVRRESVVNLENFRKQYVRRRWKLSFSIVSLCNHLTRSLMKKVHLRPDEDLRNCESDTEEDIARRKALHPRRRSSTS
smiles,measurement,setting,value
"CCC(=O)Nc1cc(Nc2cc(NC3CC3)n3ncc(C#N)c3n2)c(F)cc1N1CCC[C@H](NC)C1 [Compound 2, (S)-N-(5-((3-cyano-7-(cyclopropylamino)pyrazolo[1,5-a]pyrimidin-5-yl)amino)-4-fluoro-2-(3-(methylamino)piperidin-1-yl)phenyl)propionamide]",IC50,CSNK2A1,7.94 nM
same,IC50,CSNK2A2,12.6 nM
same,pIC50,DAPK2,< 4.52
same,occupancy in the dose-response experiment,DYRK1A,no occupancy was observed up to 10 μM
same,CLint scaled at 1 μM,[1],6.9 mL/min/kg
same,fraction unbound,[2],0.0605
